The target in experiment [1] is T1, MAO-B (Homo sapiens (Human), UniProt P27338). The experiment is described as follows: biochemical.
In experiment [2] the target is T2, MAO-A (Homo sapiens (Human), UniProt P21397). The conditions noted are these: read-out: MAO-A (Ki).
The target in experiment [3] is T3, Human recombinant LSD1 protein (Homo sapiens (Human), UniProt O60341). The experiment is described as follows: biochemical.
Text: (§1) The ability of the compounds of the invention to inhibit LSD1 can be tested as follows. Human recombinant LSD1 protein was purchased from BPS Bioscience Inc. In order to monitor LSD1 enzymatic activity and/or its inhibition rate by our inhibitor(s) of interest, di-methylated H3-K4 peptide (Millipore) was chosen as a substrate. The demethylase activity was estimated, under aerobic conditions, by measuring the release of H2O2 produced during the catalytic process, using the Amplex® Red peroxide/peroxidase-coupled assay kit (Invitrogen).
(§2) Within the experiment, each concentration of inhibitor was tested in triplicate. […] The enzymatic reactions were set up in a 50 mM sodium phosphate, pH 7.4 buffer. At the end of the incubation, Amplex® Red reagent and horseradish peroxidase (HPR) solution were added to the reaction according to the recommendations provided by the supplier (Invitrogen), and left to incubate for 30 extra minutes at room temperature in the dark. A 1 μM H2O2 solution was used as a control of the kit efficiency.
(§3) The Ki (IC50) of each inhibitor was estimated at half of the maximum activity.
Experiment [4] concerns the target T2, MAO-A. The experiment is described as follows: biochemical.
Experiment [5] has as its target T3, Human recombinant LSD1 protein. The conditions noted are these: for pKi: read-out: LSD1 (Ki).
Text: as §1, §2, §3
Experiment [6] concerns the target T1, MAO-B. Conditions: read-out: MAO-B (Ki).

pKi: −log10 of the molar value. Counter-ions that a name gives are not always drawn. Like-named read-outs stand apart in the source and are kept apart here.

T1 sequence (P27338 whole entry): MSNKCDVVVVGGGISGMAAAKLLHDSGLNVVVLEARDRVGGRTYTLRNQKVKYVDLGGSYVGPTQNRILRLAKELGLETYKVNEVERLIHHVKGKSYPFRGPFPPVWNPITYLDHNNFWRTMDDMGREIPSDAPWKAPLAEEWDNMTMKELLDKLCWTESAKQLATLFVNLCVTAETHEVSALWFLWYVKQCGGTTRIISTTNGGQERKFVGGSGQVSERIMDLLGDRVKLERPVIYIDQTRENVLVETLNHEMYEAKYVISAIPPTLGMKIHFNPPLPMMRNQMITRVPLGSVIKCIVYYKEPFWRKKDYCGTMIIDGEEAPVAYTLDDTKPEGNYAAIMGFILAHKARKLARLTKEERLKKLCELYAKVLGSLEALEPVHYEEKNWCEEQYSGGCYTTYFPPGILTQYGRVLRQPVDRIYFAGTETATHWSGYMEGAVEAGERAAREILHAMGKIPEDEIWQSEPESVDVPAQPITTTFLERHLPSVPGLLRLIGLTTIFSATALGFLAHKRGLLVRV
T2 sequence (P21397 whole entry): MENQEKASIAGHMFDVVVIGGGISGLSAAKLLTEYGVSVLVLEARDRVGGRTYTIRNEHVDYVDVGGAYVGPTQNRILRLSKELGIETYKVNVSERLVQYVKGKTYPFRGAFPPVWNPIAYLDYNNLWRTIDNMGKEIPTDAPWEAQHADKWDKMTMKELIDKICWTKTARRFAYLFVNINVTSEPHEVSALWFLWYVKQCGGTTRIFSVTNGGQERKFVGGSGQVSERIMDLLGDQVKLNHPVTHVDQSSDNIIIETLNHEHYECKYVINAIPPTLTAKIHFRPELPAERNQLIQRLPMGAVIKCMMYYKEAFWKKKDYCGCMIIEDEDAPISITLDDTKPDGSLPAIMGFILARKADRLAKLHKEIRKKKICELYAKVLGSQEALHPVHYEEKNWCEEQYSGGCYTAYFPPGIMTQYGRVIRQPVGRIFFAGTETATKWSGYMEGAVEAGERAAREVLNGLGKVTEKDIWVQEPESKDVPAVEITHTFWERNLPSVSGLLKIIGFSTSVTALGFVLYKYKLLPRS

In general, pKi refers to the Ki on a negative log10 scale, so that one unit is a factor of ten. Take `N[C@H]1C[C@@H]1c1ccc(-c2cc(Cl)cc(Cl)c2)nc1` (relative stereo) [Example 6, (Trans)-2-(6-(3,5-dichlorophenyl)pyridin-3-yl)cyclopropanamine hydrochloride]: the figures for the negative-log Ki (pKi) (on MAO-B [1]; on MAO-A [2]; in experiment [3]) were 6.00 to 7.00, 4.40 to 6.00 and 6.00 to 7.00, respectively.

For the molecule `N[C@H]1C[C@@H]1c1ccc(-c2ccc(Cl)cc2)nc1` (relative stereo) [Example 7, (trans)-2-(6-(4-chlorophenyl)pyridin-3-yl)cyclopropanamine hydrochloride], the pKi on MAO-B [1] was 6.00 to 7.00; at MAO-A [2], 4.40 to 6.00; in experiment [3], 6.00 to 7.00.

With `N[C@H]1C[C@@H]1c1ccc(-c2ccc(C(F)(F)F)cc2)nc1` (relative stereo) [Example 9, (trans)-2-(6-(4-(trifluoromethyl)phenyl)pyridin-3-yl)cyclopropanamine hydrochloride], the figures for the pKi (at MAO-B [1]; on MAO-A [2]; in experiment [3]) were 7.00 to 9.00, 4.40 to 6.00 and 6.00 to 7.00, respectively.

On to `COc1ccc(-c2ccc([C@H]3C[C@@H]3N)cn2)cc1` (relative stereo) [Example 10, (trans)-2-(6-(4-methoxyphenyl)pyridin-3-yl)cyclopropanamine hydrochloride], for which the pKi on MAO-B [1] is 4.40 to 6.00; at MAO-A [4], 4.40 to 6.00; in experiment [3], 6.00 to 7.00.

Consider `CS(=O)(=O)Nc1ccccc1-c1ccc([C@H]2C[C@@H]2N)cc1.Cl` (relative stereo) [Example 73, N-(4′-((trans)-2-aminocyclopropyl)biphenyl-2-yl)methanesulfonamide hydrochloride], for which, in experiment [5], the “LSD1 (Ki)” value was “II-III”. Also, the negative-log Ki (pKi) on MAO-B [6] and on MAO-A [2] was 4.40 to 6.00 in each case.

For `COc1ccc(C#N)cc1-c1ccc([C@H]2C[C@@H]2N)cc1.Cl` (relative stereo) [Example 74, 4′-((trans)-2-aminocyclopropyl)-6-methoxybiphenyl-3-carbonitrile hydrochloride], the “LSD1 (Ki)” value in experiment [5] is given as “II-III”. In addition, the negative logarithm of the Ki (pKi) on MAO-B [6] and on MAO-A [2] was 4.40 to 6.00 throughout.

With `N[C@H]1C[C@@H]1c1ccc(-c2cccc(C(F)(F)F)c2)nc1-c1ccc(Cl)cc1` (relative stereo) [Example 77, (trans)-2-(2-(4-chlorophenyl)-6-(3-(trifluoromethyl)phenyl)pyridin-3-yl)cyclopropanamine hydrochloride], the pKi (in experiment [5]; at MAO-B [6]; on MAO-A [2]) was 4.40 to 6.00 each time.

On to `N[C@H]1C[C@@H]1c1ccc(-c2cccc(C(F)(F)F)c2)nc1-c1ccc(O)cc1` (relative stereo) [Example 78, 4-(3-((trans)-2-aminocyclopropyl)-6-(3-(trifluoromethyl)phenyl)pyridin-2-yl)phenol hydrochloride], for which the negative logarithm of the Ki (pKi) (in experiment [5]; on MAO-B [6]; on MAO-A [2]) was 4.40 to 6.00 throughout.

As to `NC(=O)c1ccc(-c2nc(-c3cccc(C(F)(F)F)c3)ccc2[C@H]2C[C@@H]2N)cc1` (relative stereo) [Example 79, 4-(3-((trans)-2-aminocyclopropyl)-6-(3-(trifluoromethyl)phenyl)pyridin-2-yl)benzamide hydrochloride], the pKi (in experiment [5]; on MAO-B [6]; on MAO-A [2]) was 4.40 to 6.00 each time.

As to `CS(=O)(=O)Nc1cc(Cl)cc(-c2ccc([C@H]3C[C@@H]3N)cc2)c1` (relative stereo) [Example 94, N-(4′-((trans)-2-aminocyclopropyl)-5-chloro-[1,1′-biphenyl]-3-yl)methanesulfonamide hydrochloride], the pKi is 6.00 to 7.00 on MAO-B [1], 6.00 to 7.00 on MAO-A [4] and 7.00 to 9.00 in experiment [3].

For `N[C@H]1C[C@@H]1c1ccc(-c2cccc(O)c2)s1` (relative stereo) [Example 113, 3-(5-((trans)-2-aminocyclopropyl)thiophen-2-yl)phenol trihydrochloride], the negative logarithm of the Ki (pKi) was 6.00 to 7.00 at MAO-B [1], 6.00 to 7.00 at MAO-A [4] and 7.00 to 9.00 in experiment [3].

As to `N[C@H]1C[C@@H]1c1ccc(-c2ccc(-c3ccccc3)cc2)cc1` [Example 2, (trans)-2-(terphenyl-4-yl)cyclopropanamine hydrochloride], the pKi (at MAO-B [1]; in experiment [3]) was 6.00 to 7.00 in each case.

Take “Enantiomers of 4′-((trans)-2-aminocyclopropyl)biphenyl-3-ol hydrochloride [Example 63]”: the pKi was 7.00 to 9.00 in experiment [5], 4.40 to 6.00 at MAO-B [6] and 4.40 to 6.00 on MAO-A [2].

The values above are taken from patent US9676701B2, “Cyclopropylamine derivatives useful as LSD1 inhibitors” (Oryzon Genomics, S.A., priority 2010, dated 2017).
